Results taken from ChEMBL document CHEMBL1146246, “Synthesis and structure-activity relationship of novel RXR antagonists: orally active anti-diabetic and anti-obesity agents” (Bioorg Med Chem Lett, 2007).
Active and inactive are the calls of the source. The calls are words filed in the database; no cut-off is given here.

Columns and labels:
[1] = target: T1, Retinoic acid receptor RXR-alpha (Homo sapiens, UniProt P19793); assay: Inhibition of LG-100268-induced RXRalpha transactivation
T1 sequence (P19793 whole entry): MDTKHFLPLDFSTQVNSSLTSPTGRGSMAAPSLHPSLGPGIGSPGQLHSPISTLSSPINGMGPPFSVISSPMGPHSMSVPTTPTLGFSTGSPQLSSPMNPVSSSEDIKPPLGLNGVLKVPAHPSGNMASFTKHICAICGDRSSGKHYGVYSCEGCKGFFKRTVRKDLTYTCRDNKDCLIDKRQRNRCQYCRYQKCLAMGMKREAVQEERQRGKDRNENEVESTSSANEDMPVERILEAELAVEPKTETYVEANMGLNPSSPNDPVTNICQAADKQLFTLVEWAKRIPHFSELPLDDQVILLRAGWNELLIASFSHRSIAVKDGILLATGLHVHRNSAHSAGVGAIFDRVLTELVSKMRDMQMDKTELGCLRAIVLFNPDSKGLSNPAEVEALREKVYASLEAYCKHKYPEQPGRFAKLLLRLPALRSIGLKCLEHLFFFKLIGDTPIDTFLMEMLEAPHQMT

[2] = target: T1, Retinoic acid receptor RXR-alpha; assay: Inhibition of 9-cis-retinoic acid-induced RXRalpha transactivation
Mus musculus [3] = species: Mus musculus; assay: Decrease in body weight gain in obese/diabetic KKAy mouse; assay type: functional, organism-based
Mus musculus [4] = species: Mus musculus; assay: Decrease in plasma insulin concentration in obese/diabetic KKAy mouse; assay type: ADME, organism-based
Mus musculus [5] = species: Mus musculus; assay: Decrease in plasma glucose concentration in obese/diabetic KKAy mouse; assay type: ADME, organism-based

Compound `CNS(=O)(=O)c1ccc2c(c1)N=C(c1ccc(C(=O)O)cc1)c1cc3c(cc1N2C)C(C)(C)CCC3(C)C` has an IC50 [1] of 1.3 µM and an IC50 [2] of 1.3 µM.

For `CN1c2ccc(S(=O)(=O)N3CCCC3)cc2N=C(c2ccc(C(=O)O)cc2)c2cc3c(cc21)C(C)(C)CCC3(C)C`, the IC50 [1] was 1 µM and the IC50 [2] was 0.45 µM.

With `CN1c2ccc(N3CCOCC3)cc2N=C(c2ccc(C(=O)O)cc2)c2cc3c(cc21)C(C)(C)CCC3(C)C` the IC50 [1] was 7 µM and the IC50 [2] was 3.9 µM.

`COc1ccc(Sc2ccc3c(c2)N=C(c2ccc(C(=O)O)cc2)c2cc4c(cc2N3C)C(C)(C)CCC4(C)C)cc1` was tested, and the IC50 [1] was 1.6 µM and the IC50 [2] was 0.72 µM.

In the case of `CN1c2ccc(SCc3ccc(Cl)cc3)cc2N=C(c2ccc(C(=O)O)cc2)c2cc3c(cc21)C(C)(C)CCC3(C)C`, the IC50 [1] is reported as 1.6 µM and the IC50 [2] is reported as 0.67 µM.

Work on `CN1c2ccc(S(=O)(=O)c3ccc(OC(F)(F)F)cc3)cc2N=C(c2ccc(C(=O)O)cc2)c2cc3c(cc21)C(C)(C)CCC3(C)C` yielded an IC50 [1] of 0.24 µM and an IC50 [2] of 0.13 µM.

`CN1c2ccc(C#N)cc2N=C(c2ccc(C(=O)O)cc2)c2cc3c(cc21)C(C)(C)CCC3(C)C` was tested, and the IC50 [1] was 0.82 µM and the IC50 [2] was 0.43 µM.

`CN1c2ccc(S(=O)(=O)N(C)C)cc2N=C(c2ccc(C(=O)O)cc2)c2cc3c(cc21)C(C)(C)CCC3(C)C` gave an IC50 [1] of 2.2 µM and an IC50 [2] of 2 µM.

`CCCCNS(=O)(=O)c1ccc2c(c1)N=C(c1ccc(C(=O)O)cc1)c1cc3c(cc1N2C)C(C)(C)CCC3(C)C` was tested, and the IC50 [1] was 0.41 µM and the IC50 [2] was 0.19 µM.

For `CCCS(=O)(=O)c1ccc2c(c1)N=C(c1ccc(C(=O)O)cc1)c1cc3c(cc1N2C)C(C)(C)CCC3(C)C`, the IC50 [1] was 0.92 µM and the IC50 [2] was 0.45 µM.

`CN1c2ccc(Sc3ccc(OC(F)(F)F)cc3)cc2N=C(c2ccc(C(=O)O)cc2)c2cc3c(cc21)C(C)(C)CCC3(C)C` was tested, and the IC50 [1] was 1 µM and the IC50 [2] was 0.39 µM.

For `CN1c2ccc(S(=O)(=O)N3CCOCC3)cc2N=C(c2ccc(C(=O)O)cc2)c2cc3c(cc21)C(C)(C)CCC3(C)C`, the IC50 [1] was 1 µM and the IC50 [2] was 0.45 µM.

In the case of `CN1CCN(c2ccc3c(c2)N=C(c2ccc(C(=O)O)cc2)c2cc4c(cc2N3C)C(C)(C)CCC4(C)C)CC1`, the IC50 [1] is reported as 11 µM.

`CCCN1c2ccc(C#N)cc2N=C(c2ccc(C(=O)O)cc2)c2cc3c(cc21)C(C)(C)CCC3(C)C` gave an IC50 [1] of 2.1 µM and an IC50 [2] of 2.1 µM.

With `CCN1c2ccc(C#N)cc2N=C(c2ccc(C(=O)O)cc2F)c2cc3c(cc21)C(C)(C)CCC3(C)C` the IC50 [1] was 1.1 µM and the IC50 [2] was 0.53 µM.

`CCN1c2ccc(C(C)=O)cc2N=C(c2ccc(C(=O)O)cc2F)c2cc3c(cc21)C(C)(C)CCC3(C)C` gave an IC50 [1] of 3.3 µM and an IC50 [2] of 3 µM.

For `CC(=O)c1ccc2c(c1)N=C(c1ccc(C(=O)O)cc1)c1cc3c(cc1N2C)C(C)(C)CCC3(C)C`, the IC50 [1] was 1.1 µM and the IC50 [2] was 0.89 µM.

In the case of `CSc1ccc2c(c1)N=C(c1ccc(C(=O)O)cc1)c1cc3c(cc1N2C)C(C)(C)CCC3(C)C`, the IC50 [1] is reported as 3 µM and the IC50 [2] is reported as 2 µM.

For `CCN1c2ccc(C(C)=O)cc2N=C(c2ccc(C(=O)O)cc2)c2cc3c(cc21)C(C)(C)CCC3(C)C`, the IC50 [1] was 0.97 µM and the IC50 [2] was 0.79 µM.

Compound `CC(=O)c1ccc2c(c1)N=C(c1ccc(C(=O)O)cc1F)c1cc3c(cc1N2C)C(C)(C)CCC3(C)C` has an IC50 [1] of 4.6 µM.

For `COc1ccc(CS(=O)(=O)c2ccc3c(c2)N=C(c2ccc(C(=O)O)cc2)c2cc4c(cc2N3C)C(C)(C)CCC4(C)C)cc1`, the IC50 [1] was 1.4 µM and the IC50 [2] was 0.78 µM.

`CCN1c2ccc(C#N)cc2N=C(c2ccc(C(=O)O)cc2)c2cc3c(cc21)C(C)(C)CCC3(C)C` gave an IC50 [1] of 0.48 µM and an IC50 [2] of 0.32 µM.

In the case of `CN1CCN(S(=O)(=O)c2ccc3c(c2)N=C(c2ccc(C(=O)O)cc2)c2cc4c(cc2N3C)C(C)(C)CCC4(C)C)CC1`, the IC50 [1] is reported as 1.9 µM and the IC50 [2] is reported as 1 µM.

In the case of `CC(=O)c1ccc2c(c1)N=C(c1ccc(C(=O)O)c(F)c1)c1cc3c(cc1N2C)C(C)(C)CCC3(C)C`, the IC50 [1] is reported as 1.7 µM and the IC50 [2] is reported as 1.1 µM.

`COc1ccc(S(=O)(=O)c2ccc3c(c2)N=C(c2ccc(C(=O)O)cc2)c2cc4c(cc2N3C)C(C)(C)CCC4(C)C)cc1` showed an IC50 [1] of 0.36 µM and an IC50 [2] of 0.17 µM.

`COc1ccc(CSc2ccc3c(c2)N=C(c2ccc(C(=O)O)cc2)c2cc4c(cc2N3C)C(C)(C)CCC4(C)C)cc1` gave an IC50 [1] of 4.9 µM and an IC50 [2] of 5.5 µM.

`CN1c2ccc(S(C)(=O)=O)cc2N=C(c2ccc(C(=O)O)cc2)c2cc3c(cc21)C(C)(C)CCC3(C)C` was tested, and the IC50 [1] was 1.7 µM and the IC50 [2] was 1.4 µM.

In the case of `CCN1c2ccc(C#N)cc2N=C(c2ccc(C(=O)O)c(F)c2)c2cc3c(cc21)C(C)(C)CCC3(C)C`, the Activity (Mus musculus [3]) is reported as “Active”, the Activity (Mus musculus [4]) is reported as “Active” and the IC50 [1] is reported as 0.77 µM. For the same compound, the IC50 [2] was 0.5 µM and the Activity (Mus musculus [5]) was “Active”.

With `CN1c2ccc(C#N)cc2N=C(c2ccc(C(=O)O)c(F)c2)c2cc3c(cc21)C(C)(C)CCC3(C)C` the IC50 [1] was 1.2 µM and the IC50 [2] was 0.52 µM.

Compound `CN1c2ccc(S(=O)(=O)Cc3ccc(Cl)cc3)cc2N=C(c2ccc(C(=O)O)cc2)c2cc3c(cc21)C(C)(C)CCC3(C)C` has an IC50 [1] of 0.95 µM and an IC50 [2] of 0.42 µM.

In the case of `CN1c2ccc(S(=O)(=O)Nc3ccc(OC(F)(F)F)cc3)cc2N=C(c2ccc(C(=O)O)cc2)c2cc3c(cc21)C(C)(C)CCC3(C)C`, the IC50 [1] is reported as 0.96 µM and the IC50 [2] is reported as 0.46 µM.
